Patent US20160367622A1, “AGONISTS OF GUANYLATE CYCLASE USEFUL FOR THE TREATMENT OF OPIOID INDUCED DYSFUNCTIONS” (priority 2013, published 2016)
Positions of bridges follow the written chain, without caps; N, C: chain ends. Non-standard residues stand in square brackets, D forms with d. No end group written: not given here.

Experiments:
[1] = system: T84 cells monolayer; settings: for effect on SP-333 stimulation of Isc: T84 cells monolayer, opioid either pre or post SP-333 treatment; for effect on 1 μM SP-333-stimulated Isc: apical pre-treatment with 5 μM opioid for 5 min
[2] = system: female Sprague-Dawley rats; experiment: methadone-induced delay in rat GI transit (charcoal meal); type: in vivo
Experimental: (§1) Animals: All study procedures were conducted under a study outline approved by the Institutional Animal Care and Use Committee of MB Research Labs (Spinnerstown, Pa.) or Lampire Biological Laboratories (Pipersville, Pa.). Seven to eight week old female Sprague-Dawley rats [Crl:CD(SD)], weighing between ˜180-210 grams, were obtained from Charles River Laboratories and allowed to acclimate for a week. Animals were maintained on a 12 hour light-dark cycle. For intestinal tissue collection and evaluation of GI transit, rats were fasted for at least 18 hours before the experiment, with free access to water.
(§2) The ability of opioids to delay GI transit in rats was tested by either administering 0 (vehicle) 0.25, 1 and 2.5 mg/kg of morphine or 0 (vehicle), 0.25, 2.5 and 5 mg/kg of methadone (1.5 ml/kg dose volume) by IP injection. Water served as vehicle control. Ten minutes later, a 2 mL charcoal meal consisting of 10% activated charcoal (Sigma-Aldrich, St. Louis, Mo.) and 10% gum Arabic (Sigma-Aldrich, St. Louis, Mo.) in water was administered via oral gavage. Rats were euthanized 10 min after the charcoal meal via IP injection of 150 mg/kg Beuthanasia-D solution (sodium pentobarbital, 390 mg/mL). The small intestine was removed and the total length from the pyloric sphincter to the ileocecal junction was recorded, as well as the distance traveled by the leading edge of the charcoal. Intestinal transit was determined by calculating the ratio (expressed as a percentage) of the distance between the pyloric sphincter and the leading edge of the charcoal to the distance between the pyloric sphincter and the ileocecal junction.
To evaluate the ability of SP-333 to reverse methadone induced delayed GI transit, animals were administered 2.5 mg/kg of methadone by IP injection. Ten minutes later, an oral gavage of 0 (vehicle), 0.1, 0.5, 2.5, 5 and 50 mg/kg of SP-333 (1.5 ml/kg dose volume) was administered followed immediately by a 2 mL oral gavage of the charcoal meal. Ten minutes after the charcoal meal, animals were euthanized and intestinal transit was calculated as described above.

[3] = system: female Sprague-Dawley CD rats; experiment: GI transit delay induced by repeated methadone administration in rats; type: in vivo, rat; settings: after 16 doses (once daily; 7 doses at 5 mg/kg and 9 doses at 2.5 mg/kg)
Experimental: The ability of SP-333 to alleviate GI transit delay induced by repeated methadone administration was also evaluated in the similar manner. Female Sprague-Dawley CD rats 7 to 8 weeks of age (n=7/group) received via IP injection 16 doses of methadone (once daily; 7 doses @ 5 mg/kg and 9 doses @ 2.5 mg/kg). Ten minutes following each methadone dose, each group received an oral gavage of vehicle, 2.5, and 5 mg/kg of SP-333. At the end of the dosing regimen, animals were fasted overnight and GI transit was evaluated as described above.

[4] = system: rat jejunum tissue; settings: for effect on SP-333 stimulation of Isc: rat jejunum tissue, opioid either pre or post SP-333 treatment; for effect on 1 μM SP-333-stimulated Isc / effect of inhibitor on SP-333-stimulated Isc: rat jejunum; for effect on 1 μM SP-333-stimulated Isc: apical pre-treatment with 5 μM opioid for 5 min; for effect of inhibitor on SP-333-stimulated Isc: inhibitor pretreatment 5 min, then 1 μM SP-333
[5] = system: female Sprague-Dawley CD rats; experiment: methadone-induced constipation in rats (fecal output); type: in vivo, rat; settings: for average number of fecal pellets over 4 h, lower compared to the vehicle group: light cycle
Experimental: To identify the methadone dose that induces constipation in rats, female Sprague-Dawley CD rats 7 to 8 weeks of age (n=6/group) were administered 0 (vehicle), 2.5, 5, and 7.5 mg/kg of methadone (1.5 ml/kg dose volume) by IP injection once a day for 5 days. Fecal pellets were collected at 4 h intervals during the light cycle and average number of pellets was recorded for each group during the course of the study following daily dose administrations of methadone.
To evaluate the ability of SP-333 to relieve methadone-induced constipation, female Sprague-Dawley CD rats 7 to 8 weeks of age (n=7/group) were administered 5 mg/kg of methadone (or vehicle) each day for 7 days via IP injection to induce constipation. Ten minutes following the IP dose each day, an oral gavage of 2.5, and 5 mg/kg of SP-333 or vehicle (buffer) was administered. Fecal pellets were collected at 4 h intervals during the light cycle and average number of pellets recorded for each group during the course of the study following daily administration of vehicle, methadone or combination of methadone and SP-333.

[6] = system: female Sprague-Dawley CD rats; experiment: as above; type: in vivo, rat
[7] = system: female Sprague-Dawley rats; experiment: morphine-induced delay in rat GI transit (charcoal meal); type: in vivo; settings: for GI transit slowed compared to vehicle controls: rats
Experimental: as §1, §2
To evaluate the ability of SP-333 to reverse morphine induced delayed GI transit, animals were administered 2.5 mg/kg of morphine by IP injection followed immediately by oral gavage of 0 (vehicle), 0.5, 2.5, 5 and 50 mg/kg of SP-333 (1.5 ml/kg dose volume). Water served as vehicle control. Charcoal meal was administered ten minutes later and animals were euthanized ten minutes after the charcoal meal and intestinal transit was calculated as described above.

[8] = target: guanylate cyclase-C (GC-C) on T84 cells (human (T84, human carcinoma cell line), UniProt P25092 24-1073); experiment: cell-based or functional assay
[9] = target: T1, guanylate cyclase-C (GC-C) in rat jejunum (rat, UniProt P23897 23-1072); experiment: cell-based or functional assay
T1 sequence (looked up): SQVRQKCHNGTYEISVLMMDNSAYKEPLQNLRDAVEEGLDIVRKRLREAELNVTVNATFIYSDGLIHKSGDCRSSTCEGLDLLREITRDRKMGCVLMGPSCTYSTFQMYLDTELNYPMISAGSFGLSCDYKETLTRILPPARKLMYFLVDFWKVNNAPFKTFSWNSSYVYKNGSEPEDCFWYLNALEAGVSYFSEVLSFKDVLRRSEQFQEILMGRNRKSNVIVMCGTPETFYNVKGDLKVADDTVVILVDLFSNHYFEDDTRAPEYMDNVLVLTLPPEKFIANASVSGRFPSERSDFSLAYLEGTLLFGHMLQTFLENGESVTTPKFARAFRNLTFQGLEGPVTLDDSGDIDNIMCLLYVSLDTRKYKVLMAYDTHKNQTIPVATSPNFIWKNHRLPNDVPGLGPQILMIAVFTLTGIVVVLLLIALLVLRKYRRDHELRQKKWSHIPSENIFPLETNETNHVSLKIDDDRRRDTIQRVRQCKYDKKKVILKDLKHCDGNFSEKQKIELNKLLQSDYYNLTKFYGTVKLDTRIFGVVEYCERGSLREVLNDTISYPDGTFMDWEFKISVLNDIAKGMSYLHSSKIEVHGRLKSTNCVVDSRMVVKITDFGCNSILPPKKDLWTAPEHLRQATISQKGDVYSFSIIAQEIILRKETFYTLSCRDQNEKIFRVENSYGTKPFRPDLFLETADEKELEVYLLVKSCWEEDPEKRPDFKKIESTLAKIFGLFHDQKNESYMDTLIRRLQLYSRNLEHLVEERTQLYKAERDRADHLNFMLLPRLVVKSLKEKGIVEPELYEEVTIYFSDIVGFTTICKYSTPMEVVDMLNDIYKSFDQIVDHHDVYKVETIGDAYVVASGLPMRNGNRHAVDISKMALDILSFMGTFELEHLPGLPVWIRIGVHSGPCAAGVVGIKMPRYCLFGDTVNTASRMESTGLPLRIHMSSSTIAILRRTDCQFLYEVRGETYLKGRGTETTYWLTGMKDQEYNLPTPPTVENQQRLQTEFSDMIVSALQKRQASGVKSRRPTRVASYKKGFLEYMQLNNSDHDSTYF

guanylate cyclase-C (GC-C) on T84 cells, sequence (P25092 24-1073): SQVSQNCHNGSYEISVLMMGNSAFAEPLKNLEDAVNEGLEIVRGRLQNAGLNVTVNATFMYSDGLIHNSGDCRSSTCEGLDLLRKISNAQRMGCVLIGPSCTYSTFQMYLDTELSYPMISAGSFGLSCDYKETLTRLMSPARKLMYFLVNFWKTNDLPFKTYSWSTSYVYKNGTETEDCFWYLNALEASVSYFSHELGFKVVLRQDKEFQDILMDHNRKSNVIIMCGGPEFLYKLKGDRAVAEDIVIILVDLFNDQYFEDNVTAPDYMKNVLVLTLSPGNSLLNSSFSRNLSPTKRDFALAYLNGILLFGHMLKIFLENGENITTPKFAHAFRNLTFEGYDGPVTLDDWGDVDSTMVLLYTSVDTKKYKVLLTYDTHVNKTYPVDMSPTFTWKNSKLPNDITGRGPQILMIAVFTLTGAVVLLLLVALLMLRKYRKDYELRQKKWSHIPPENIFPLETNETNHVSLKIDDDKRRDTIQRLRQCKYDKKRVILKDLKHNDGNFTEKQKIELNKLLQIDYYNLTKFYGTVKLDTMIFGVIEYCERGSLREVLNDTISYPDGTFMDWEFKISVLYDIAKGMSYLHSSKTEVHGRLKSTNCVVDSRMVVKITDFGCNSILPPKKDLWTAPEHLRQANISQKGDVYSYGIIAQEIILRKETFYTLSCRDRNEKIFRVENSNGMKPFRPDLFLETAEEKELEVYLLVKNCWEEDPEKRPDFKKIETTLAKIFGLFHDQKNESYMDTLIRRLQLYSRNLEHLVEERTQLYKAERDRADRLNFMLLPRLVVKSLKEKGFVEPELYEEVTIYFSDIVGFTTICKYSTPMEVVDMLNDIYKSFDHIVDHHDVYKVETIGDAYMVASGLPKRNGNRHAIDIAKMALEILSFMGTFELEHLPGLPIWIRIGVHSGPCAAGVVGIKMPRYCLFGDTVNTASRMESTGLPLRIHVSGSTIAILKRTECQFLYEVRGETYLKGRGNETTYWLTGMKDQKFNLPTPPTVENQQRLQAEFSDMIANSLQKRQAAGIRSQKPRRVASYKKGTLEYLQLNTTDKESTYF

CCC(=O)C(CC(C)N(C)C)(c1ccccc1)c1ccccc1 (stereo not drawn) [methadone]
effect on SP-333 stimulation of Isc [1]: did not alter stimulation of Isc | effect on 1 μM SP-333-stimulated Isc ([1]; T84 cells): no effect | effect on SP-333 mediated enhancement in Isc ([1]; T84 monolayer, 1 μM SP-333 then opioid at 20 μM, FIG. 5B): inhibited | GI transit ([2]; 2.5 mg/kg methadone IP alone (vs 55% in vehicle treated)): 28% | GI transit ([2]; 0.25, 2.5 and 5 mg/kg IP, rats): statistically significant reduction in GI transit | rat small intestine transit [3]: significantly delayed rat small intestine transit | effect on SP-333 stimulation of Isc [4]: did not alter stimulation of Isc | effect on 1 μM SP-333-stimulated Isc [4]: no effect | average number of fecal pellets over 4 h, lower compared to the vehicle group ([5]; 2.5 mg/kg IP once daily for 5 days): 29% | average number of fecal pellets over 4 h, lower compared to the vehicle group ([5]; 5 mg/kg IP once daily for 5 days): 77% | average number of fecal pellets over 4 h, lower compared to the vehicle group ([5]; 7.5 mg/kg IP once daily for 5 days): 54% | average number of fecal pellets, less vs vehicle control ([5]; methadone alone, 5.0 mg/kg IP daily 7 days then 2.5 mg on days 8-16): 82% | average number of fecal pellets over 4 h, lower compared to the vehicle group ([6]; 10 mg/kg IP once daily for 5 days, light cycle): 63% | average number of fecal pellets ([6]; methadone alone 2.5 mg/kg IP once daily for 9 days): significant decrease in the average number of fecal pellets

O=C(O)c1ccc(/C=C2\SC(=S)N(c3cccc(C(F)(F)F)c3)C2=O)cc1 [CFTRinh172]
suppression in SP-333-stimulated Isc ([1]; T84 cells, 10 μM inhibitor, vs 1 μM SP-333 alone): 80% | effect of inhibitor on SP-333-stimulated Isc [4]: less compared to that detected in T84 cells

COC(=O)[C@@]1(OC)C[C@H]2O[C@]1(C)n1c3ccccc3c3c4c(c5c6ccccc6n2c5c31)C(=O)N(C)C4 [PKG-II inhibitor]
suppression of relative SP-333-stimulated Isc ([1]; T84 cells, 4 μM inhibitor, 1 μM SP-333): approximately 35%

Nc1ncnc2c1nc(Sc1ccc(Cl)cc1)n2[C@@H]1O[C@@H]2COP(=O)(O)O[C@H]2[C@H]1O [CPT-cAMP]
stimulation of Isc across T84 cell monolayers [1]: stimulate Isc

Nc1nc2c(nc(Sc3ccc(Cl)cc3)n2[C@@H]2O[C@@H]3COP(=O)(O)O[C@H]3[C@H]2O)c(=O)[nH]1 [CPT-cGMP]
stimulation of Isc across T84 cell monolayers [1]: stimulate Isc

CN1CC[C@]23c4c5ccc(O)c4O[C@H]2[C@@H](O)C=C[C@H]3[C@H]1C5 [morphine]
GI transit ([7]; 2.5 mg/kg morphine IP alone (vs 53% in vehicle treated)): 23% | GI transit slowed compared to vehicle controls ([7]; single dose 0.25 mg/kg IP): 52% | GI transit slowed compared to vehicle controls ([7]; single dose 1.0 mg/kg IP): 56% | effect on SP-333 stimulation of Isc [1]: did not alter stimulation of Isc | effect on 1 μM SP-333-stimulated Isc ([1]; T84 cells): negligible effect | effect on SP-333 stimulation of Isc [4]: did not alter stimulation of Isc | effect on 1 μM SP-333-stimulated Isc [4]: negligible effect

[Cl][Cd][Cl] [CdCl2]
decrease in SP-333-stimulated Isc ([1]; T84 cells, 300 μM, 1 μM SP-333): No appreciable decrease | effect of inhibitor on SP-333-stimulated Isc [4]: minimal effect

B1: SP-333 (peptide)
peptide: [dN]DECELCVNVACTGC[dL]
modifications: disulfide 4-12, 7-15
EC50 of stimulation of Isc across T84 cells monolayer, apical treatment [8]: 215 nM | EC50 of stimulation of Isc across rat jejunum tissue, apical treatment [9]: 287 nM
